≈ marks a conversion by molar mass, not a printed value.
Key:
WI-38 [1] = assay: Minimum inhibitory concentration (MIC) required to reduce virus-induced cytopathogenicity by 50% against Rhinovirus-1A in human diploid (WI-38)cells; type: functional
HeLa [2] = assay: Minimum cytotoxic concentration (MCC) required to cause a microscopically detectable alteration of host cell morphology, when incubated with HeLa cells; type: functional; details: Homo sapiens
Vero [3] = assay: Minimum inhibitory concentration (MIC) required to reduce virus-induced cytopathogenicity by 50% against Parainfluenza virus-3 in African green monkey kidney (Vero B)cells; type: functional, Chlorocebus sabaeus
WI-38 [4] = assay: Minimum cytotoxic concentration (MCC) required to cause a microscopically detectable alteration of host cell morphology, when incubated with WI-38 cells; type: functional; details: Homo sapiens
[5] = Minimum cytotoxic concentration (MCC) required to cause a microscopically detectable alteration of host cell morphology, when incubated with PRK cells; type: functional; details: Oryctolagus cuniculus
Oryctolagus cuniculus [6] = species on record: Oryctolagus cuniculus; assay: Minimum inhibitory concentration (MIC) required to reduce virus-induced cytopathogenicity by 50% against KOS strain of Herpes simplex virus-1 in primary rabbit kidney cells; type: functional
Vero [7] = assay: Minimum inhibitory concentration (MIC) required to reduce virus-induced cytopathogenicity by 50% against Sindbis virus in African green monkey kidney (Vero B)cells; type: functional; details: Chlorocebus sabaeus
Vero [8] = assay: Minimum cytotoxic concentration (MCC) required to cause a microscopically detectable alteration of host cell morphology, when incubated with Vero B cells; type: functional; details: Chlorocebus sabaeus
WI-38 [9] = assay: Minimum inhibitory concentration (MIC) required to reduce virus-induced cytopathogenicity by 50% against Rhinovirus 9 in human diploid (WI-38)cells; type: functional
HeLa [10] = assay: Minimum inhibitory concentration (MIC) required to reduce virus-induced cytopathogenicity by 50% against Coxsackie virus B4 in HeLa cells; type: functional; details: Homo sapiens
Vero [11] = assay: Minimum inhibitory concentration (MIC) required to reduce virus-induced cytopathogenicity by 50% against Reo virus-1 in African green monkey kidney (Vero B)cells; type: functional, Chlorocebus sabaeus
Vero [12] = assay: Minimum inhibitory concentration (MIC) required to reduce virus-induced cytopathogenicity by 50% against forest virus in African green monkey kidney (Vero B)cells; type: functional; details: Chlorocebus sabaeus
Vero [13] = assay: Minimum inhibitory concentration (MIC) required to reduce virus-induced cytopathogenicity by 50% against Coxsackie virus B4 in African green monkey kidney (Vero B)cells; type: functional, Chlorocebus sabaeus
Oryctolagus cuniculus [14] = species on record: Oryctolagus cuniculus; assay: Minimum inhibitory concentration (MIC) required to reduce virus-induced cytopathogenicity by 50% against G strain of Herpes simplex virus-2 in primary rabbit kidney cells; type: functional
Oryctolagus cuniculus [15] = species on record: Oryctolagus cuniculus; assay: Minimum inhibitory concentration (MIC) required to reduce virus-induced cytopathogenicity by 50% against Vaccinia virus in primary rabbit kidney cells; type: functional
HeLa [16] = assay: Minimum inhibitory concentration (MIC) required to reduce virus-induced cytopathogenicity by 50% against Vesicular stomatitis virus in HeLa cells; type: functional; details: Homo sapiens
Oryctolagus cuniculus [17] = species on record: Oryctolagus cuniculus; assay: Minimum inhibitory concentration (MIC) required to reduce virus-induced cytopathogenicity by 50% against Vesicular stomatitis virus in primary rabbit kidney cells; type: functional
HeLa [18] = assay: Minimum inhibitory concentration (MIC) required to reduce virus-induced cytopathogenicity by 50% against Polio virus-1 in HeLa cells; type: functional; details: Homo sapiens
[19] = Chlorocebus sabaeus, read-out: MIC
[20] = Oryctolagus cuniculus, read-out: MIC

| SMILES | MIC (WI-38 [1]) [µg/mL] | MCC (HeLa [2]) [µg/mL] | MIC (Vero [3]; [19]) [µg/mL] | MCC (WI-38 [4]) [µg/mL] | MCC [5] [µg/mL] | MIC (Oryctolagus cuniculus [6]) [µg/mL] | MIC (Vero [7]) [µg/mL] | MCC (Vero [8]) [µg/mL] | MIC (WI-38 [9]; Homo sapiens, read-out: MIC) [µg/mL] | MIC (HeLa [10]) [µg/mL] | MIC (Vero [11]; [19]) [µg/mL] | MIC (Vero [12]) [µg/mL] | MIC (Vero [13]; [19]) [µg/mL] | MIC (Oryctolagus cuniculus [14]; [20]) [µg/mL] | MIC (Oryctolagus cuniculus [15]; [20]) [µg/mL] | other results |
| --- | --- | --- | --- | --- | --- | --- | --- | --- | --- | --- | --- | --- | --- | --- | --- | --- |
| Cc1cn([C@H]2O[C@H](CO)[C@H](O)[C@@H]2O)c(=O)[nH]c1=O | > 400 | > 400 | > 400 | > 400 | > 400 | > 400 | > 400 | > 400 | > 400 | > 400 | > 200 | > 400 | > 400 | > 400 | – | – |
| Nc1ccn([C@H]2O[C@H](CO)[C@H](O)[C@@H]2O)c(=O)n1 | > 400 | > 400 | > 400 | > 400 | > 400 | > 400 | > 400 | > 400 | > 400 | > 400 | > 400 | > 400 | > 400 | > 400 | – | – |
| Nc1nc2c(ncn2[C@@H]2O[C@H](CO)[C@H](O)[C@@H]2O)c(=O)[nH]1 | > 400 | > 400 | > 400 | > 400 | > 400 | > 400 | > 400 | > 400 | > 400 | > 400 | > 400 | > 400 | > 400 | 400 (≈ 1410 µM) | 100 (≈ 353 µM) | – |
| O=c1ccn([C@@H]2O[C@H](CO)[C@H](O)[C@@H]2O)c(=O)[nH]1 | > 400 | > 400 | > 400 | > 400 | > 400 | > 400 | > 400 | > 400 | 100 (≈ 409 µM) | > 400 | > 400 | > 400 | > 100 | > 400 | – | – |
| Nc1ccn([C@@H]2O[C@H](CO)[C@H](O)[C@@H]2O)c(=O)n1 | > 200 | > 200 | > 100 | > 200 | > 200 | > 200 | > 100 | > 200 | > 200 | > 200 | > 200 | > 200 | > 200 | > 200 | 70 (≈ 288 µM) | – |
| Nc1nc2c(ncn2[C@H]2O[C@H](CO)[C@H](O)[C@@H]2O)c(=O)[nH]1 | > 400 | > 400 | > 400 | > 400 | > 400 | > 400 | > 400 | > 400 | 200 (≈ 706 µM) | > 400 | > 400 | > 400 | > 400 | > 400 | – | – |
| O=c1ccn([C@H]2O[C@H](CO)[C@H](O)[C@@H]2O)c(=O)[nH]1 | > 400 | > 400 | > 400 | > 400 | > 400 | > 400 | > 400 | > 400 | > 400 | > 400 | > 200 | > 400 | > 400 | > 400 | – | – |
| Nc1ncnc2c1ncn2[C@@H]1O[C@H](CO)[C@H](O)[C@@H]1O (stereo in doubt; 22d) | > 400 | – | – | – | – | – | – | – | – | – | – | – | – | – | – | MIC (Oryctolagus cuniculus [15]): 200 µg/mL (≈ 748 µM); MIC (Vero [3]): >200 µg/mL; MIC (WI-38 [9]): >400 µg/mL; MIC (Vero [11]): >200 µg/mL; MIC (Vero [13]): 100 µg/mL (≈ 374 µM); MIC (Oryctolagus cuniculus [14]): >400 µg/mL |
| NC(=O)c1ncn([C@@H]2O[C@H](CO)[C@@H](O)[C@H]2O)n1 [RIBAVIRIN] | 150 (≈ 614 µM) | > 200 | 70 (≈ 287 µM) | > 400 | > 400 | > 400 | 70 (≈ 287 µM) | > 400 | > 400 | 70 (≈ 287 µM) | 70 (≈ 287 µM) | > 400 | 10 (≈ 40.9 µM) | > 400 | 20 (≈ 81.9 µM) | MIC (HeLa [16]): 20 µg/mL (≈ 81.9 µM); MIC (Oryctolagus cuniculus [17]): 150 µg/mL (≈ 614 µM); MIC (HeLa [18]): 70 µg/mL (≈ 287 µM) |
| Nc1ncnc2c1ccn2[C@@H]1O[C@H](CO)[C@@H](O)[C@H]1O [TUBERCIDIN] | 0.02 (≈ 0.0751 µM) | > 1 | > 0.1 | > 4 | 1 | > 0.4 | 0.2 (≈ 0.751 µM) | > 0.4 | > 4 | 0.2 (≈ 0.751 µM) | > 0.1 | > 0.4 | 0.2 (≈ 0.751 µM) | > 0.4 | 0.2 (≈ 0.751 µM) | MIC (HeLa [16]): 0.07 µg/mL (≈ 0.263 µM); MIC (Oryctolagus cuniculus [17]): 0.07 µg/mL (≈ 0.263 µM); MIC (HeLa [18]): 0.07 µg/mL (≈ 0.263 µM) |

— ChEMBL document CHEMBL1123770, “Systematic synthesis and biological evaluation of alpha- and beta-D-lyxofuranosyl nucleosides of the five naturally occurring nucleic acid bases” (1987)
